Laboratory results from patent publication US20080268535A1, “Method for Inducing the Differentiation of Human Myelogenous Leukemia Cells Into Megakarocytes or Thrombocytes” (EWHA University - Industry Collaboration Foundation, priority 2005, published 2008).

Assays:
Format in all cases: cell-based, human
HEL cells [1] = assay: Cell differentiation of HEL cells, optical microscopy; settings: 5 μg/ml (R)-NALPCE, 10 nmole PMA or 50 ng/ml TPO, 5 days
Protocol: HEL cells were aliquoted at a density of 3×10^5 cells per well in 6-well plates and treated with 5 μg/ml of (R)-NALPCE, 10 nmole of PMA, or 50 ng/ml of TPO, followed by incubation in a day-dependent manner for 5 days. They were observed under an optical microscope with 200× magnification.

HEL cells [2] = assay: Growth curve of HEL cells (trypan blue viable cell count); settings: 5 μg/ml, counted every day for 5 days
Protocol: (§1) To examine the effect of the compound (R)-NALPCE on cell growth, the HEL cells was monitored for growth curve in the presence thereof. The cells were aliquoted at a density of 3×10^5 cells per well in 6-well plates and treated with 5 μg/ml of (R)-NALPCE. After staining with trypan blue, viable cells were counted every day for 5 days.

K562 cells [3] = assay: Production of thrombocytes, K562 cells on OP9 cells, optical microscopy; settings: 40 μg/ml
Protocol: An experiment was conducted in a manner similar to that of Example 7. OP9 cells were aliquoted at a density of 1×10^5 cells per well in 6-well plates and incubated for 24 hrs. After OP9 cells were uniformly attached onto the bottom of the plates, K562 cells were layered at a density of 1×10^5 cells per well over the OP cells in the 6-well plates. Treatment with 40 μg/ml of (R)-NALPCE was conducted before incubation in a day-dependent manner for 5 days. They were observed under an optical microscope with 200× magnification.

K562 cells [4] = assay: Growth curve of K562 cells (trypan blue viable cell count); settings: 40 μg/ml, counted every day for 5 days
Protocol: as §1, with “K562” for “the HEL”, “growth” for “growth curve”, “1×10^5” for “3×10^5”, “40 μg/ml.” for “5 μg/ml of (R)-NALPCE.”

**Q.** For `CCCCCCCCCCCCCCCCCC(=O)NC(COP(=O)([O-])OCC[N+](C)(C)C)C(=O)OC` [(R)-NALPCE, N-steroyl-O-phosphocholine-D-serine methyl ester], which “cell morphology (optical microscope)” value (HEL cells [1]) is on record?
**A.** increase in size in a day-dependent manner

**Q.** And the “cell growth curve (viable cells)” value (HEL cells [2])?
**A.** relatively low cell growth curve

**Q.** What about the “cell size (optical microscope)” value (K562 cells [3]; 5 days) of the same molecule?
**A.** increased in size in a time-dependent manner

**Q.** What about the “appearance of anucleate cells” value (K562 cells [3]; from Day 4 after the treatment) of the same molecule?
**A.** anucleate cells, such as thrombocytes, were observed

**Q.** What about the “cell growth curve (viable cells)” value (K562 cells [4]) of the same molecule?
**A.** relatively low cell growth curve
